Test results published in patent publication US20100056622A1, “Methods of Using Ramelteon to Treat Patients Suffering from a Variety of Neurodegenerative Diseases” (priority 2008, published 2010).

Key:
[1] = system: patient with Probable Dementia with Lewy Bodies; assay: Case report Example 1: ramelteon in a patient with Probable Dementia with Lewy Bodies; type: in vivo, human; details: 2 week follow-up
Method: A person with a 4 year history of Probable Dementia with Lewy Bodies was treated with ramelteon as follows. The patient presented for treatment was experiencing poor sleep (i.e., interval insomnia with only 3-4 hours of sleep at night), fatigue, weight loss, poor concentration, anhedonia, irritability, social withdrawal, but no depressive mood or depressive cognitions. The patient would nap for an hour in the afternoons, consistent with Excessive Daytime Somnolence (EDS), nocturnal insomnia, or dopamine agonist therapy. They admitted to some anxiety daily in the afternoons lasting up to an hour, but had no somatic symptoms with this. Confusion was mild, but occurred once daily, and they had hallucinated only once, 6 weeks previously. There was significant nocturnal incontinence associated with the insomnia, with 4 or more episodes per night. The Neuropsychiatric Inventory Questionnaire (NPI-Q) was administered with the result being a score of 11 (delusions 1, agitation 2, irritability 1, nighttime behaviors 6, appetite 1). The […] al. Apathy Scale was also administered with the result being a score of 31. Ramelteon was administered beginning at 8 mg at bedtime and increased after 3 days to 16 mg by mouth each night at bedtime. At a 2 week follow-up, the patient began sleeping 7 hours each night, with only 2 episodes of incontinence at night.

[2] = system: patient with Probable Parkinson's Disease Dementia; assay: Case report Example 2: ramelteon in a patient with Probable Parkinson's Disease Dementia (person); type: in vivo, human; details: after 2 weeks
Method: A person with a 10 year history of Probable Parkinson's Disease Dementia was treated with ramelteon as follows. The patient presented for treatment was experiencing dementia EDS, REM behavior disorder (i.e., RBD, manifest in acting out their dreams while asleep), and symptoms of Parkinson's disease (e.g., bradykinesia, rigidity, resting tremor, and postural instability). […] After 2 weeks of treatment with ramelteon, 8 mg each night at bedtime, scores had improved on the ESS from 19 to 16, DRS-2 (DRS-2 Conceptualization score) improved from 35 to 38, Memory from 24 to 25, Total from 138 to 141, and Trails (Trails B 68 to 60, Trails B-Trails A 36 to 28). Thus, treatment with ramelteon led to demonstrable improvement in excessive daytime sleepiness, concept formation (i.e., similitudes and differences), memory (i.e., spontaneous recall, factual knowledge, and recognition), overall cognition, and measures of executive function.

[3] = system: patient with Probable Parkinson's Disease Dementia; assay: Case report Example 3: ramelteon in a patient with Parkinson Disease and Probable Parkinson's Disease Dementia (person); type: in vivo, human; details: 10 weeks
Method: A person with an 18 year history of Parkinson Disease with subsequent development of Probable Parkinson's Disease Dementia was treated with ramelteon. The patient presented was experiencing dementia (i.e., memory loss, inattention, and dysexecutive syndrome), initial and interval insomnia, and typical features of Parkinson's disease (i.e., bradykinesia, rigidity, resting tremor, and postural instability). The patient was started on ramelteon, 8 mg each night at bedtime, and was seen again 10 weeks later. DRS-2 Initiation (i.e., categorical naming reflecting temporal lobe function) improved from a score of 31 to 34, Controlled Oral Word Association Test S Subtest (i.e., naming reflecting frontal lobe function) from 14 to 17, CLOX 1 (i.e., reflecting executive function) from 6 to 8, and ADCS-ADL disability (i.e., reflecting ability to perform activities of daily living) from 43 to 47. Thus, treatment with ramelteon was associated with improvements in temporal and frontal lobe—related naming, executive function, and overall ability to cognitively function.

[4] = system: liver function after hemorrhagic shock and reperfusion; details: rats; cited from earlier work
melatonin-1 receptor = melatonin-1 receptor (Homo sapiens, UniProt P48039); details: cited from earlier work
melatonin-2 receptor = target: T1, melatonin-2 receptor (Homo sapiens, UniProt P49286); details: cited from earlier work
T1 sequence (P49286 1-362): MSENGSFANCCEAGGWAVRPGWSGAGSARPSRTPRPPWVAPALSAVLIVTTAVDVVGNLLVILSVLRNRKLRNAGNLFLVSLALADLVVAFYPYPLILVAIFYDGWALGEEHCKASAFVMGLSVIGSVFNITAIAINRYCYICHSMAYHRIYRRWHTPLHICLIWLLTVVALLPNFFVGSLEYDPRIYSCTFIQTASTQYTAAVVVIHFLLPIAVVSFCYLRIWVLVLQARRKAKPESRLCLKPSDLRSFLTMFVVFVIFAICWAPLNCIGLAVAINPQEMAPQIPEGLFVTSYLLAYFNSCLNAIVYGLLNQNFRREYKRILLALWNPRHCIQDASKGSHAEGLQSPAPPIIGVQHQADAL

[5] = system: mouse cerebellar granule cells; details: cited from earlier work

Chain of melatonin-1 receptor (P48039 whole entry): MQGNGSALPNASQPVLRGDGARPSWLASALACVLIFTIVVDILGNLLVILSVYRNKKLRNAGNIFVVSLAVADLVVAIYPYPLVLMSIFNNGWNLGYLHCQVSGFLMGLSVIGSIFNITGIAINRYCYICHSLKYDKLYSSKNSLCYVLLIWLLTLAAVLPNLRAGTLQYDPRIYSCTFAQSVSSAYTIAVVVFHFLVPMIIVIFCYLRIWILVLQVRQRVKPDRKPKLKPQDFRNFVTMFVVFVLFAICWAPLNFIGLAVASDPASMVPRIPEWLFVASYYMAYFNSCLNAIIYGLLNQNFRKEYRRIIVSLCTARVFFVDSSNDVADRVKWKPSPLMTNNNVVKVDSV

CCC(=O)NCC[C@@H]1CCc2ccc3c(c21)CCO3 [ramelteon, (S)—N-[2-(1,6,7,8-tetrahydro-2H-indeno-[5,4-b]furan-8-yl)ethyl]propionamide]
MMSE scores [1]: did not show a change | afternoon anxiety [1]: no longer of concern | anhedonia [1]: absent | appetite [1]: improved | confusional episodes, intensity [1]: reduced in intensity | hallucinations [1]: continued in remission | irritability [1]: markedly better | social withdrawal [1]: absent | sleep each night ([1]; 8 mg then 16 mg by mouth at bedtime, before treatment 3-4 hours): 7 h | NPI-Q appetite ([1]; before treatment 1): 1 | NPI-Q delusions ([1]; before treatment 1): 0 | NPI-Q agitation ([1]; before treatment 2): 0 | episodes of incontinence at night ([1]; before treatment 4 or more episodes per night): 2 episodes | NPI-Q nighttime behaviors ([1]; before treatment 6): 1 | NPI-Q score (total) ([1]; before treatment 11): 2 | Apathy Scale (Starkstein et al.) score ([1]; before treatment 31): 37 | confusional episodes, frequency ([1]; before treatment once daily): half as frequent | DRS-2 Memory score ([2]; 8 mg at bedtime, before treatment 24): 25 | DRS-2 Conceptualization score ([2]; 8 mg at bedtime, before treatment 35): 38 | Trails B-Trails A ([2]; 8 mg at bedtime, before treatment 36): 28 | Trails B ([2]; 8 mg at bedtime, before treatment 68): 60 | DRS-2 Total score ([2]; 8 mg at bedtime, before treatment 138): 141 | Epworth Sleepiness Scale (ESS) score ([2]; 8 mg each night at bedtime, before treatment 19): 16 | CLOX 1 ([3]; 8 mg at bedtime, before treatment 6): 8 | Controlled Oral Word Association Test S Subtest ([3]; 8 mg at bedtime, before treatment 14): 17 | ADCS-ADL activities of daily living score ([3]; 8 mg at bedtime, before treatment 43): 47 | DRS-2 Initiation score ([3]; 8 mg each night at bedtime, before treatment 31): 34 | recovery of the liver after reperfusion [4]: improved recovery of the liver after reperfusion | agonist potency relative to melatonin (melatonin-1 receptor): more potent at these sites than melatonin itself | agonist potency relative to melatonin (melatonin-2 receptor): more potent at these sites than melatonin itself | concentrations of BDNF in neurons [5]: increased concentrations of BDNF in neurons
